The target in experiment [1] is T1, CCR5 (Homo sapiens, UniProt P51681). The experiment in a line: Binding of anti-CCR5 antibody 2D7 to HEK293/CCR5 cells (flow cytometry). Also on record: expressed in transfected cells; host or cells: HEK-293. The note with it: 0.1 mM peptide, 45 min 22° C. As to the method:
CEMx174 cells were pelleted and resuspended at 10^6 cells/ml in PBS containing 1% BSA and 0.1% sodium azide (FACS buffer). Cells were then preincubated with designated concentrations of peptides or SDF-1-α (1 μg/ml) at 22° C. for 60 min. FITC-labeled anti-human CXCR4 antibody (clone 12G5, BD PharMingen, San Diego, Calif.) was added to the cells per the manufactures instructions and further incubated at 22° C. for 40 minutes. Cells were extensively washed with FACS buffer and analyzed using a FACS Calibur flowcytometer (Becton Dickinson). HEK/CCR5 cells were suspended in Dulbecco's PBS containing 1% FCS and 0.05% NaN3 (10^4 cells in 100 μl) and incubated with or without 5 μg of MIP-1β (PeproTech, Rocky Hill, N.J.), 0.1 mM peptide 15D or 15K for 45 min at 22° C. Cells were then treated with FITC-conjugated anti-human CCR5 antibody (2D7; BD PharMingen, San Diego, Calif.), and incubated for 30 min at 22° C. Cells were washed twice, and analyzed using a FACScan flow cytometer (Becton Dickinson Immunocytometry Systems, San Jose, Calif.).
The effect of the exemplary peptides 15K and 15D on the binding of 2D7 antibodies to CCR5 was assayed to further evaluate the mechanism of anti-coreceptor activity of the peptides. […]
The effects of peptides 15D and 15K on 2D7 antibody binding to HEK293/CCR5 cells were analyzed by flow cytometry.
Background: In flow cytometry, cells or beads pass a laser one at a time.

The target of experiment [2] is T1, CCR5. Description: Chemotaxis of HEK-CCR5 cells to RANTES (microchemotaxis chamber). Also on record: expressed in transfected cells; host or cells: HEK-293. Format: cell-based. The note with it: for inhibition of RANTES-directed chemotactic response / induction of chemotaxis by peptide alone: HEK-CCR5 cells; for inhibition of RANTES-directed chemotactic response: RANTES 100 ng/ml, 3 hr; for induction of chemotaxis by peptide alone: tested at any concentration. The protocol:
Migration of HEK-CCR5 cells to RANTES alone, or the combination of RANTES and designated concentrations of either 15K or 15D peptides, were determined in micro-chemotaxis chambers. […] The results are representative of three independent experiments. *p<0.05.
Chemotaxis assays for HEK-293 cells transfected with CCRS was performed as previously described (Howard et al., J. Biol. Chem. 274:16228-16234, 1999, incorporated herein by reference). Briefly, the chemokine RANTES, diluted in binding medium to 100 ng/ml, was placed in the lower wells of a microchemotaxis chamber. Polycarbonate membrane pretreated with rat tail collagen type 1 was placed over the chemokine solution. The cells (1×10^6/ml) were suspended in binding medium along with the exemplary peptides 15D or 15K at designated concentrations and placed in the upper wells of the chamber. After incubation for 3 hr the membrane was removed, stained using a Diff-Quik kit (Trends Scientific, Kalamazoo, Mich.) and counted. The results are expressed as the “chemotaxis index”, which represents the ratio of the number of cells in high powered field in test versus control samples.
To achieve this goal, the capacity of these peptides to inhibit the chemotactic response of HEK-CCR5 cells to a cognate ligand of CCR5 receptors, the chemokine RANTES, was assayed.

A further experiment relates to HIV-1IIIB. The experiment in a line: HIV-1IIIB infection of PBMC, p24 ELISA. Format: cell-based. The note with it: for concentration at which significant inhibition of HIV-1 infection was detected (as low as): HIV-1IIIB, PBMC; for inhibition of T cell-tropic HIV-1 infection of PBMCs (p24): peptide 1 hr before HIV-1IIIB, p24 after 48 hr, FIG. 4. As to the method:
Peripheral blood mononuclear cells were treated with designated concentrations of peptide for a period of 1 hr prior to addition of HIV-1IIIB. After 2 hr, cells were washed, and viral replication was determined after 48 hr by analysis of p24 levels. Results are representative of 4 independent experiments.
PBMCs were obtained from whole blood of normal donors and isolated by Ficoll-Paque Plus (Pharmacia Biotech, Piscataway, N.J.) density gradient centrifugation, and plated at a cell density of 2×10^6 cells/ml. Monocyte-derived macrophages (MDM) were generated from adherent human peripheral blood mononuclear cells by culture for 7 days with M-CSF (100 ng/ml). Cultures were maintained in RPMI-1640 medium (Life Technologies, Rockville, Md.) supplemented with 10% heat-inactivated endotoxin-free FCS (Hyclone, Logan, Utah), 10 μg/ml gentamicin, and 1 mM glutamine. Cells were treated with designated concentrations of the exemplary peptides 15K or 15D, and after 1 hr cells were infected with HIV-1IIIB (T cell tropic) or HIV-1JRFL (monocyte tropic) at an multiplicity of infection (MOI) of 0.1. After 2 hr, cells were washed, and cultured for additional 48-72 hr, followed by analysis of HIV replication as determined by quantification of accumulated p24 in the supernatant. The production of p24 was determined by conventional sandwich ELISA, using ELISA plates pre-coated with capture anti-p24 antibodies provided by the AIDS Vaccine Program (SAIC Frederick, NCI-FCRDC, Frederick, Md.). The captured p24 antigen was detected using rabbit anti-HIV-1 anti-p24 antibody, and a secondary goat anti-rabbit IgG (peroxidase-labeled) antibody. The captured p24 protein was detected using a 3,3′,5,5′-tetramethylbenzidine and hydrogen peroxide detection system (KPL Laboratories, Gaithersburg, Md.). The reaction was read spectrophotometrically at 450 nm. No cytotoxicity was detectable following treatment of PBMC with the peptides even at a concentration of 100 μg/ml.
In view of the foregoing binding inhibition studies, and considering the homology between the 15K and 15D peptides and the CXCR4 ligand SDF-1α, it was further undertaken to determine the capacity of the synthetic peptides to inhibit CXCR4 co-receptor function. In particular, experiments were carried out to assess the ability of 15K or 15D to alter the infection of PBMCs with the T cell-tropic […] strain. […] Significant inhibition of HIV-1 infection was detected with concentrations of peptides as low as 10 ng/ml.
Background: In an ELISA, binding on a coated surface is turned into a signal by an enzyme label.

T1 sequence (P51681 whole entry): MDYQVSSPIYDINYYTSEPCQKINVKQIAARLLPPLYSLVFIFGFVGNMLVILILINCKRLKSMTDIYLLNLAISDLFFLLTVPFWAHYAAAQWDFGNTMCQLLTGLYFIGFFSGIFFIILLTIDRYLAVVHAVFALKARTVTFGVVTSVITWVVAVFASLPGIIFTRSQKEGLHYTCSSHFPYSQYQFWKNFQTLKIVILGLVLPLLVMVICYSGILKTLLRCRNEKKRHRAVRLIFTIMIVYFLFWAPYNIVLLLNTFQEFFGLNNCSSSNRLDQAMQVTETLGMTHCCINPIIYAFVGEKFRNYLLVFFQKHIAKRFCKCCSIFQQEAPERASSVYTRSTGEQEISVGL

As to “I R K A H C N I S R A D W N D [Peptide 15D]”, the “effect on 2D7 anti-CCR5 antibody binding” value at CCR5 [1] is listed as “No significant effect”. The “inhibitory activity on chemotaxis, one peptide compared with the other” value at CCR5 [2] (15D versus 15K, FIG. 2) is reported as “consistently exhibited greater inhibitory activity”. The “inhibition of RANTES-directed chemotactic response” value at CCR5 [2] (FIG. 2) is recorded as “completely blocked”. In addition, at CCR5 [2], the “induction of chemotaxis by peptide alone” value is reported as “did not induce detectable chemotaxis”. Further, in the experiment with HIV-1IIIB, the “concentration at which significant inhibition of HIV-1 infection was detected (as low as)” value was found to be 10 ng/mL and the “inhibition of T cell-tropic HIV-1 infection of PBMCs (p24)” value is recorded as “significantly reduced HIV-1 infection”. Also, the “anti-HIV-1 activity of 15D in comparison with 15K” value with HIV-1IIIB (some experiments, data not shown, virus strain not stated) was “higher anti-HIV-1 activity”.

Turning to IRKAHCNISRAKWND [Peptide 15K], the “effect on 2D7 anti-CCR5 antibody binding” value at CCR5 [1] is listed as “No significant effect”. In addition, the “inhibition of RANTES-directed chemotactic response” value on CCR5 [2] (FIG. 2) was “completely blocked”. Besides, at CCR5 [2], the “induction of chemotaxis by peptide alone” value was “did not induce detectable chemotaxis”. Moreover, in the experiment on HIV-1IIIB, the “concentration at which significant inhibition of HIV-1 infection was detected (as low as)” value came to 10 ng/mL and the “inhibition of T cell-tropic HIV-1 infection of PBMCs (p24)” value is “significantly reduced HIV-1 infection”.

Source of the values: patent publication US20060116325A1, “Methods and compositions for inhibiting hiv-coreceptor interactions” (priority 2001, published 2006).
